The record followed here is publication PMC9412362, “Design, Synthesis, and Characterization of Novel Coordination Compounds of Benzimidazole Derivatives with Cadmium” (Pharmaceutics, 2022).

Each structure is given as a SMILES string. ≈ marks a conversion by molar mass, not a printed value. Like-named read-outs stand apart in the source and are kept apart here.

One assay relates to T98G cells. Put plainly: MTT cytotoxicity assay, glioblastoma T98G. The assay is classed as cell-based, human. The settings on record: MTT assay after 24 h of incubation, read-out: IC50 ± SD, T98G. On the procedure: (§1) Samples of complexes (about 20 mg) were digested in a concentrated mixture of 36% HCl (1 mL) and 65% HNO3 (6 mL). The contents of Cd (II) in the solid complexes were determined with an F-AAS spectrometer (Analytik Jena, contraAA 300, Jena, Germany) with a continuous source of light and using an air/acetylene flame (Analytik Jena, contraAA 300). Absorbances were measured at the analytical spectral lines at 228.8 nm for Cd (II). The limit of quantification was 0.004 mg/L for Cd (II). The solid samples were decomposed using an Anton Paar Multiwave 3000 (Graz, Austria) closed-system instrument. Mineralization was carried out for 45 min at 240 °C under a pressure of 60 bar. The contents of carbon, hydrogen, and nitrogen were determined with an instrument from Vario Micro Company Elementar Analysensysteme GmbH (Langenselbold, Germany). FTIR spectra were recorded with an IR Tracer-100 Schimadzu Spectrometer (4000–600 cm^−1 with an accuracy of recording of 1 cm^−1, Kyoto, Japan) using KBr pellets. The thermal analyses were carried out with a Netzsch STA 449 F1 Jupiter thermoanalyzer (Netzsch-Geratebau GmbH, Selb, Germany) coupled with a Netzsch Aeolos Quadro QMS 403 mass spectrometer (Netzsch-Geratebau GmbH, Selb, Germany). The samples were heated up to 1000 °C in corundum crucibles with a heating rate of 10 °C/min in an atmosphere of synthetic air (20% O2, 80% N2). The cytotoxic effects of the compounds were evaluated using glioblastoma (T98G), neuroblastoma (SK-N-AS), and lung adenocarcinoma (A549) cell lines and normal human skin fibroblasts (CCD-1059Sk). T98G and SK-N-AS cells were cultured in high-glucose DMEM and A549 cells were cultured in DMEM/F12, while CCD-1059Sk cells were cultured in MEM. All media were supplemented with 10% (FBS), 100 U/mL of penicillin, and […] of streptomycin (PenStrep). Cells were incubated at 37 °C in a humidified atmosphere of 5% CO2. Stock solutions were prepared by dissolving the compounds in sterile dimethyl sulfoxide (DMSO) to obtain a concentration of 50 mg/mL. The cells were seeded into sterile 96-well plates (Nunc) at a density of 1 × 10^5 cells/mL. After 24 h of incubation, the medium was removed from each well, and then the cells were incubated for the next 24 h with different concentrations of the tested compounds (1–100 µg/mL) in their respective media containing 2% FBS. The cytotoxicity of the compounds was evaluated using an MTT assay, which was based on the conversion of 3-(4,5-dimethylthiazol-2-yl)-2,5-diphenyltetrazolium bromide (MTT) into dark-blue formazan crystals. Briefly, after 24 h of incubation of the cells with varying concentrations of the tested compounds, all culture media were removed from the plates. The cells were washed with PBS, and then 100 µL of medium containing 10% MTT solution (5 mg/mL) was added to each well. After 3 h of incubation, 100 µL (per well) of 10% SDS buffer solution was added to solubilize the formazan crystals. After overnight incubation, the absorbance was measured at 570 nm using a microplate reader (Epoch, BioTek Instruments). Experiments were repeated twice, and the measurements in each experiment were run in triplicate. The viability of the investigated cells was expressed as the percentage of the viability of the untreated cells, and the results were transformed into IC50 values (expressed as mean ± SD). The complexes were screened for antibacterial and antifungal activity by using the micro-dilution broth method with Mueller–Hinton broth for the growth of bacteria or Mueller–Hinton broth with 2% glucose for the growth of fungi. […]
In general terms: Formazan colour is commonly taken as a measure of viable cells.

Assay [1] concerns S. epidermidis ATCC 12228. Description: MIC, micro-dilution broth method. The assay is classed as cell-based, Staphylococcus epidermidis. The settings on record: Gram-positive bacteria, micro-dilution broth. How it is done: as §1
In general terms: Broth dilution looks for growth in wells or tubes with falling amounts of substance.

The test system of another assay is P. aeruginosa ATCC 9027. Put plainly: MIC, micro-dilution broth method. The assay is classed as cell-based, Pseudomonas aeruginosa. To be noted: for MIC: Pseudomonas aeruginosa, ATCC9027, Gram-negative bacteria. How it is done: as §1
The next assay deals with A549 cells. Put plainly: MTT cytotoxicity assay, lung adenocarcinoma A549. The assay is classed as cell-based, human. To be noted: lung carcinoma A549, MTT assay after 24 h of incubation, read-out: IC50 ± SD, A549. How it is done:
as §1

For a further assay, the system named is M. luteus ATCC 10240. Put plainly: MIC, micro-dilution broth method. The assay is classed as cell-based, Micrococcus luteus. The settings on record: Gram-positive bacteria, micro-dilution broth. How it is done: as §1
Another assay relates to K. pneumoniae ATCC 13883. Put plainly: MIC, micro-dilution broth method. It is filed as cell-based, Klebsiella pneumoniae. The settings on record: for MIC: Klebsiella pneumoniae, ATCC13883, Gram-negative bacteria. On the procedure: as §1
The test system of assay [2] is C. parapsilosis ATCC 22019. Description: MIC, micro-dilution broth method. It is filed as cell-based, Candida parapsilosis. The settings on record: Yeasts, micro-dilution broth with 2% glucose. On the procedure:
as §1

The test system of another assay is E. coli ATCC 25922. Description: MIC, micro-dilution broth method. The assay is classed as cell-based, Escherichia coli. To be noted: for MIC: Escherichia coli, ATCC25922, Gram-negative bacteria. On the procedure: as §1
The subject of a further assay is E. faecalis ATCC 29212. Put plainly: MIC, micro-dilution broth method. It is filed as cell-based, Enterococcus faecalis. To be noted: Gram-positive bacteria, micro-dilution broth. On the procedure: as §1
In another assay the test system is B. subtilis ATCC 6633. Put plainly: MIC, micro-dilution broth method. To be noted: Gram-positive bacteria, micro-dilution broth. The assay is classed as cell-based, Bacillus subtilis. How it is done:
as §1

The next assay concerns S. aureus ATCC 25923. Put plainly: MIC, micro-dilution broth method. The assay is classed as cell-based, Staphylococcus aureus. To be noted: Gram-positive bacteria, micro-dilution broth. How it is done: as §1
The subject of a further assay is C. glabrata ATCC 2091. Put plainly: MIC, micro-dilution broth method. It is filed as cell-based. The settings on record: for MIC, C. glabrata ATCC 2091: Yeasts, micro-dilution broth with 2% glucose. On the procedure:
as §1

Another assay has as its system CCD-1059Sk cells. Put plainly: MTT cytotoxicity assay, normal human skin fibroblasts CCD-1059Sk. The assay is classed as cell-based. To be noted: normal human fibroblasts CCD-1059Sk, MTT assay after 24 h of incubation; read-out: IC50 ± SD, CCD-1059-Sk. How it is done:
as §1

Another assay relates to C. albicans ATCC 102231. Description: MIC, micro-dilution broth method. The assay is classed as cell-based, Candida albicans. The settings on record: for MIC, C. albicans ATCC 102231: Yeasts, micro-dilution broth with 2% glucose. On the procedure: as §1
In assay [3] the test system is S. typhimurium ATCC 14028. Put plainly: MIC, micro-dilution broth method. To be noted: Gram-negative bacteria; for MIC: Salmonella enterica. It is filed as cell-based, Salmonella Typhimurium. How it is done:
as §1

The subject of the next assay is SK-N-AS cells. Put plainly: MTT cytotoxicity assay, neuroblastoma SK-N-AS. The assay is classed as cell-based, human. The settings on record: MTT assay after 24 h of incubation, read-out: IC50 ± SD, SK-N-AS. On the procedure:
as §1

The next assay relates to P. mirabilis ATCC 12453. Put plainly: MIC, micro-dilution broth method. It is filed as cell-based, Proteus mirabilis. The settings on record: for MIC: Proteus mirabilis, ATCC12453, Gram-negative bacteria. On the procedure:
as §1

The test system of the next assay is B. cereus ATCC 10876. Put plainly: MIC, micro-dilution broth method. It is filed as cell-based, Bacillus cereus. The settings on record: Gram-positive bacteria, micro-dilution broth. How it is done: as §1

On to `O.[Cl][Cd][Cl].c1cnc2[nH]c(-c3ccncc3)nc2c1` [C2, Cd(L2)Cl2∙H2O], for which the IC50 in the assay on T98G cells amounted to 65.25 ± 0.63 µM; in the assay on A549 cells, 34.1 ± 0.55 µM; with CCD-1059Sk cells, 44.07 ± 0.33 µM; in the assay with SK-N-AS cells, 22.5 µM. For the same molecule, in assay [1], the “MIC, S. epidermidis ATCC 12228” value stood at 500 mg/L. Besides, the “MIC, P. aeruginosa ATCC 9027” value in the assay with P. aeruginosa ATCC 9027 (Gram-negative bacteria) is recorded as greater than 1000 mg/L. Also, the “MIC, M. luteus ATCC 10240” value against M. luteus ATCC 10240 was found to be 7.8 mg/L. In the assay with K. pneumoniae ATCC 13883 (Gram-negative bacteria), the “MIC, K. pneumoniae ATCC 13883” value was greater than 1000 mg/L. Besides, the “MIC, C. parapsilosis ATCC 22019” value in assay [2] was 7.8 mg/L. Also, the “MIC, E. coli ATCC 25922” value with E. coli ATCC 25922 (Gram-negative bacteria) is reported as 1000 mg/L. Besides, the “MIC, E. faecalis ATCC 29212” value with E. faecalis ATCC 29212 was 125 mg/L. In addition, in the assay with B. subtilis ATCC 6633, the “MIC, B. subtilis ATCC 6633” value came to 0.98 mg/L. In addition, the “MIC, S. aureus ATCC 25923” value against S. aureus ATCC 25923 came out at 1000 mg/L. The “MIC, C. glabrata ATCC 2091” value against C. glabrata ATCC 2091 was 31.3 mg/L. In the assay on C. albicans ATCC 102231, the “MIC, C. albicans ATCC 102231” value was 125 mg/L. Also, the “MIC, S. typhimurium ATCC 14028” value in assay [3] is greater than 1000 mg/L. Also, in the assay with P. mirabilis ATCC 12453 (Gram-negative bacteria), the “MIC, P. mirabilis ATCC 12453” value is reported as greater than 1000 mg/L. For the same molecule, in the assay on B. cereus ATCC 10876, the “MIC, B. cereus ATCC 10876” value is 500 mg/L.
For `c1cnc2[nH]c(-c3ccncc3)nc2c1` [L2], the IC50 in the assay on T98G cells (Homo sapiens) is 178 ± 7.3 µM; with A549 cells (Homo sapiens), 220 ± 11 µM; in the assay with CCD-1059Sk cells, greater than 509 µM; in the assay with SK-N-AS cells (Homo sapiens, SK-N-AS, 24 h), 415 ± 17 µM. The MIC was 1000 mg/L (≈ 5100 µM) in [1] (Staphylococcus epidermidis, ATCC12228, read-out: MIC, S. epidermidis ATCC 12228); greater than 1000 mg/L in the assay with P. aeruginosa ATCC 9027; 250 mg/L (≈ 1270 µM) with M. luteus ATCC 10240 (Micrococcus luteus, ATCC10240, read-out: MIC, M. luteus ATCC 10240); greater than 1000 mg/L with K. pneumoniae ATCC 13883; greater than 1000 mg/L in assay [2] (Lodderomyces parapsilosis, ATCC22019); 1000 mg/L (≈ 5100 µM) in the assay with E. coli ATCC 25922. Moreover, the minimal inhibitory concentration (MIC) is 1000 mg/L (≈ 5100 µM) with E. faecalis ATCC 29212 (Enterococcus faecalis, ATCC29212, read-out: MIC, E. faecalis ATCC 29212); 500 mg/L (≈ 2550 µM) with B. subtilis ATCC 6633 (Bacillus subtilis, ATCC6633, read-out: MIC, B. subtilis ATCC 6633); 1000 mg/L (≈ 5100 µM) in the assay with S. aureus ATCC 25923 (Staphylococcus aureus, ATCC25923, read-out: MIC, S. aureus ATCC 25923); greater than 1000 mg/L with C. glabrata ATCC 2091 (Nakaseomyces glabratus, ATCC2091, read-out: MIC, C. glabrata ATCC 2091); 1000 mg/L (≈ 5100 µM) in the assay on C. albicans ATCC 102231 (Candida albicans, ATCC102231, read-out: MIC, C. albicans ATCC 102231); 1000 mg/L (≈ 5100 µM) in [3]. The MIC in the assay on P. mirabilis ATCC 12453 is 1000 mg/L (≈ 5100 µM); with B. cereus ATCC 10876 (Bacillus cereus, ATCC10876, read-out: MIC, B. cereus ATCC 10876), 250 mg/L (≈ 1270 µM).
`C[C@@H]1[C@H](O)[C@@H](C)/C=C/C=C/CC/C=C/C=C/C=C/C=C/C(O[C@H]2O[C@H](C)[C@@H](O)[C@H](N)[C@@H]2O)CC2O[C@](O)(CC(O)C(O)CCC(O)CC(O)CC(O)CC(=O)O[C@H]1C)CC(O)C2C(=O)O` (some centres unmarked) [Nys, nystatin, reference compound]: in [2], the “MIC, C. parapsilosis ATCC 22019” value is given as 0.24 mg/L (≈ 0.259 µM). Further, the “MIC, C. glabrata ATCC 2091” value in the assay on C. glabrata ATCC 2091 came out at 0.48 mg/L (≈ 0.518 µM). Besides, the “MIC, C. albicans ATCC 102231” value in the assay with C. albicans ATCC 102231 was 0.24 mg/L (≈ 0.259 µM).
For the molecule `O=C(O)c1cn(C2CC2)c2cc(N3CCNCC3)c(F)cc2c1=O` [Cip, ciprofloxacin, reference compound], the MIC against P. aeruginosa ATCC 9027 was found to be 0.49 mg/L (≈ 1.48 µM); in the assay with K. pneumoniae ATCC 13883, 0.12 mg/L (≈ 0.362 µM); against E. coli ATCC 25922, 0.015 mg/L (≈ 0.0453 µM); in assay [3], 0.061 mg/L (≈ 0.184 µM); in the assay with P. mirabilis ATCC 12453, 0.03 mg/L (≈ 0.0905 µM).

As a reminder, the IC50 is the concentration at which inhibition is half-maximal. In general, MIC refers to the smallest concentration in the dilution series that meets the test's criterion for growth inhibition.
